Reference: US7326732B2, “EP2 receptor agonists” (Pharmagene Laboratories Limited, priority 2004, dated 2008)
Like-named read-outs stand apart in the source and are kept apart here.

Legend:
[1] = target: T1, human EP2 prostanoid receptors (Homo sapiens, UniProt P43116); test: Agonist activity at recombinant human EP2 prostanoid receptors (cAMP in HEK-293 clones); assay type: cell-based; settings: for activity (EP2 part): functional classification at EP2
T1 construct: expressed in transfected cells; host or cells: HEK-293

[2] = target: T2, human EP3 receptor (Homo sapiens, UniProt P43115); test: Binding ability to human EP receptors ([3H]PGE2 displacement), EP3; settings: membranes expressing human EP3; [3H]PGE2 2.5 nM; Cheng-Prusoff; read-out: pKi (M) EP3 (converted)
T2 construct: expressed in transfected cells
T2 sequence (P43115 1-390): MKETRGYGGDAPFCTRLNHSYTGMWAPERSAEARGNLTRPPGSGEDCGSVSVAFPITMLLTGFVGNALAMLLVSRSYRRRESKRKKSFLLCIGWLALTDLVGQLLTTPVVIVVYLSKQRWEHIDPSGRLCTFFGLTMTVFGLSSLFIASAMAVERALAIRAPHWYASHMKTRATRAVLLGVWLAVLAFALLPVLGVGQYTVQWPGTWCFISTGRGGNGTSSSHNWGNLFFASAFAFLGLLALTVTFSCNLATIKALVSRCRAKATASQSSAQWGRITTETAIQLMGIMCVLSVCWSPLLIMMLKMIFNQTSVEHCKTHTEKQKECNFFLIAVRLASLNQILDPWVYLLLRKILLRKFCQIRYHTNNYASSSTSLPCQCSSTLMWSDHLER
Method in brief: (§1)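 Membranes from cells stably expressing human EP2, EP3 or EP4 incubated to equilibrium with [3H]PGE2 and compound at 0.1 to 10 000 nM. Non-specific binding defined with 10 uM PGE2; bound label separated by vacuum filtration and quantified by scintillation counting.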

[3] = target: T3, human EP4 receptor (Homo sapiens, UniProt P35408); test: Binding ability to human EP receptors ([3H]PGE2 displacement), EP4; settings: membranes expressing human EP4; [3H]PGE2 1 nM; Cheng-Prusoff; read-out: pKi (M) EP4 (converted)
T3 construct: expressed in transfected cells
Method in brief: as §1

[4] = target: T4, human EP2 receptor (Homo sapiens, UniProt P43116); test: Binding ability to human EP receptors ([3H]PGE2 displacement), EP2
T4 construct: expressed in transfected cells
Method in brief: as §1

[5] = HEK-293 stably transfected with human EP2, cAMP accumulation, read-out: pEC50 EP2 (converted)
[6] = membranes expressing human EP2, [3H]PGE2 3 nM, Cheng-Prusoff, read-out: pKi (M) EP2 (converted)

T3 sequence (P35408 whole entry): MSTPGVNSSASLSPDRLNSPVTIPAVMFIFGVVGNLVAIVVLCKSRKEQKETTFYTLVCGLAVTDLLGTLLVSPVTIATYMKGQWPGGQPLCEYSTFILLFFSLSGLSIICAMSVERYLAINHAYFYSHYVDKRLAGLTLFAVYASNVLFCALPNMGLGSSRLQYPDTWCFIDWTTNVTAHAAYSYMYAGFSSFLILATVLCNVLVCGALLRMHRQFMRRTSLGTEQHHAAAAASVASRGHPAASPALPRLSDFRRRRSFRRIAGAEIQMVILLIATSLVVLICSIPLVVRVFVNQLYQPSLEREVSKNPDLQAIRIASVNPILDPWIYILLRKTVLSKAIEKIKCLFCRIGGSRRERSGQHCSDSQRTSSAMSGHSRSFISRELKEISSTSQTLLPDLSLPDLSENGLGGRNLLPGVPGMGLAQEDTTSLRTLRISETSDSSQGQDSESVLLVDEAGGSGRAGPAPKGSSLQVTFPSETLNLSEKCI
T4 sequence (P43116 whole entry): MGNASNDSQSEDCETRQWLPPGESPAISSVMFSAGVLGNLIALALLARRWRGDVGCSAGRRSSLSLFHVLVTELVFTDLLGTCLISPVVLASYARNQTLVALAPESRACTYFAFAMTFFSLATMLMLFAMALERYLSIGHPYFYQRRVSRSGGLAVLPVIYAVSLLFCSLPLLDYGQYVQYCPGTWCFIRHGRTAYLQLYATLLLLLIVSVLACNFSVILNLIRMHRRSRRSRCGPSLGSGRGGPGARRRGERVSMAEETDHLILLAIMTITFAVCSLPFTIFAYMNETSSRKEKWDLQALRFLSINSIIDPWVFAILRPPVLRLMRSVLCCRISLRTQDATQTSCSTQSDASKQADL
T1 sequence (P43116 whole entry): as above

EC50 [1, 5] [nM] | activity (EP2 part) [1] | Ki [2] [M] | Ki [3] [M] | Ki [4, 6] [M] | EC50 [1] [nM] | Ki [4] [M] | SMILES
< 100 | EP2 Agonist | > 1e-05 | > 1e-05 | < 1e-07 |  |  | O=C(O)Cc1cccc(NC(=O)c2cccc(-c3ccc(F)cc3)n2)c1 [Compound 153, (3-{[6-(4-Fluoro-phenyl)-pyridine-2-carbonyl]-amino}-phenyl)-acetic acid]
< 100 | EP2 Agonist | > 1e-05 | > 1e-05 | < 1e-07 |  |  | O=C(O)COc1cccc(NC(=O)c2cccc(-c3ccc(Cl)cc3)n2)c1 [Compound 154, (3-{[6-(4-Chloro-phenyl)-pyridine-2-carbonyl]-amino}-phenoxy)-acetic acid]
< 100 | EP2 Agonist | > 1e-05 | > 1e-05 | < 1e-07 |  |  | O=C(O)/C=C/c1cccc(NC(=O)c2cccc(-c3ccc(F)cc3)n2)c1 [Compound 155, 3-(3-{[6-(4-Fluoro-phenyl)-pyridine-2-carbonyl]-amino}-phenyl)-acrylic acid]
< 100 | EP2 Agonist | > 1e-05 | > 1e-05 | < 1e-07 |  |  | O=C(O)COc1cccc(NC(=O)c2ccc(-c3ccc(Cl)cc3)o2)c1 [Compound 156, (3-{[5-(4-Chloro-phenyl)-furan-2-carbonyl]-amino}-phenoxy)-acetic acid]
< 100 | EP2 Agonist | > 1e-05 | > 1e-05 | < 1e-07 |  |  | O=C(O)COc1cccc(NC(=O)c2ccc(-c3ccc(F)cc3)o2)c1 [Compound 157, (3-{[5-(4-Fluoro-phenyl)-furan-2-carbonyl]-amino}-phenoxy)-acetic acid]
< 100 | EP2 Agonist | > 1e-05 | < 1e-06 | < 1e-07 |  |  | O=C(O)COc1cccc(NC(=O)c2cccc(-c3ccc(F)cc3)n2)c1 [Compound 158, (3-{[6-(4-Fluoro-phenyl)-pyridine-2-carbonyl]-amino}-phenoxy)-acetic acid]
< 100 | EP2 Agonist | > 1e-05 | > 1e-05 | < 1e-07 |  |  | O=C(O)CCc1cccc(NC(=O)c2cccc(-c3ccc(F)cc3)n2)c1 [Compound 159, 3-(3-{[6-(4-Fluoro-phenyl)-pyridine-2-carbonyl]amino}-phenyl)-propionic acid]
< 100 | EP2 Agonist | > 1e-05 | > 1e-05 | < 1e-07 |  |  | O=C(O)COc1cccc(NC(=O)c2ccc(-c3ccccc3)o2)c1 [Compound 160, {3-[(5-Phenyl-furan-2-carbonyl)-amino]-phenoxy}-acetic acid]
< 100 | EP2 Agonist | > 1e-05 | > 1e-05 | < 1e-07 |  |  | O=C(O)CCc1cccc(NC(=O)c2cccc(-c3cccc(F)c3)n2)c1 [Compound 162, 3-(3-{[6-(3-Fluoro-phenyl)-pyridine-2-carbonyl]-amino}-phenyl)-propionic acid]
< 100 | EP2 Agonist | > 1e-05 | > 1e-05 | < 1e-07 |  |  | O=C(O)CCc1cccc(NC(=O)c2ccc(-c3cccc(F)c3)o2)c1 [Compound 163, 3-(3-{[5-(3-Fluoro-phenyl)-furan-2-carbonyl]-amino}-phenyl)-propionic acid]
< 100 | EP2 Agonist | > 1e-05 | > 1e-05 | < 1e-06 |  |  | O=C(O)CCc1cccc(NC(=O)c2cccc(-c3ccccc3)n2)c1 [Compound 164, 3-{3-[(6-Phenyl-pyridine-2-carbonyl)-amino]-phenyl}-propionic acid]
< 100 | EP2 Agonist | > 1e-05 | > 1e-05 | < 1e-07 |  |  | O=C(O)COc1cccc(NC(=O)c2cc(-c3ccccc3)ccc2F)c1 [Compound 165]
< 100 | EP2 Agonist | > 1e-05 | > 1e-05 | < 1e-07 |  |  | O=C(O)COc1cccc(NC(=O)c2ccc(-c3cccc(F)c3)o2)c1 [Compound 168, (3-{[5-(3-Fluoro-phenyl)-furan-2-carbonyl]-amino}-phenoxy)-acetic acid]

More lines, now with the values behind:

SMILES | EC50 [1, 5] [nM] | activity (EP2 part) [1] | Ki [2] [M] | Ki [3] [M] | Ki [4, 6] [M] | EC50 [1] [nM] | Ki [4] [M]
O=C(O)Cc1cccc(NC(=O)c2ccc(-c3cccc(F)c3)o2)c1 [Compound 128, (3-{[5-(3-fluoro-phenyl)-furan-2-carbonyl]-amino}-phenyl)-acetic acid] | < 100 | EP2 Agonist | > 1e-05 | > 1e-05 | < 1e-06 |  | 
O=C(O)/C=C/c1cccc(NC(=O)c2cccc(-c3cc(Cl)cc(Cl)c3)n2)c1 [Compound 132, 3-(3-{[6-(3,5-Dichloro-phenyl)-pyridine-2-carbonyl]-amino}-phenyl)-acrylic acid] | < 100 | EP2 Agonist | > 1e-05 | > 1e-05 | < 1e-07 |  | 
O=C(O)CCc1cccc(NC(=O)c2cccc(-c3cc(Cl)cc(Cl)c3)n2)c1 [Compound 134, 3-(3-{[6-(3,5-Dichloro-phenyl)-pyridine-2-carbonyl]-amino}-phenyl)-propionic acid] | < 100 | EP2 Agonist | > 1e-05 | > 1e-05 | < 1e-07 |  | 
O=C(Nc1ccc2[nH]c(C(=O)O)cc2c1)c1cccc(-c2cc(Cl)cc(Cl)c2)n1 [Compound 135, 5-{[6-(3,5-Dichloro-phenyl)-pyridine-2-carbonyl]-amino}-1H-indole-2-carboxylic acid] | < 1000 | EP2 Agonist | > 1e-05 | > 1e-05 | < 1e-06 |  | 
O=C(O)/C=C/c1cccc(NC(=O)c2cccc(-c3cccc(Cl)c3)n2)c1 [Compound 137, 3-(3-{[6-(3-Chloro-phenyl)-pyridine-2-carbonyl]-amino}-phenyl)-acrylic acid] |  | EP2 Agonist | > 1e-05 | < 1e-06 |  | < 100 | < 1e-07
O=C(O)COc1cccc(NC(=O)c2cc(-c3cccc(Cl)c3)ccc2F)c1 [Compound 140, {3-[(3′-Chloro-4-fluoro-biphenyl-3-carbonyl)-amino]-phenoxy}-acetic acid] | < 100 | EP2 Agonist | > 1e-05 | > 1e-05 | < 1e-07 |  | 
O=C(O)/C=C/c1cccc(NC(=O)c2cc(-c3cccc(Cl)c3)ccc2F)c1 [Compound 142, 3-{3-[(3′-Chloro-4-fluoro-biphenyl-3-carbonyl)-amino]-phenyl}-acrylic acid] | < 100 | EP2 Agonist | > 1e-05 | > 1e-05 | < 1e-07 |  | 
O=C(O)COc1cccc(NC(=O)c2cc(-c3cc(Cl)cc(Cl)c3)ccc2F)c1 [Compound 143, {3-[(3′,5′-Dichloro-4-fluoro-biphenyl-3-carbonyl)-amino]-phenoxy}-acetic acid] | < 100 | EP2 Agonist | > 1e-05 | > 1e-05 | < 1e-07 |  | 
O=C(O)/C=C/c1cccc(NC(=O)c2ccc(-c3ccc(Cl)cc3)o2)c1 [Compound 146, 3-(3-{[5-(4-Chloro-phenyl)-furan-2-carbonyl]-amino}-phenyl)-acrylic acid] | < 100 | EP2 Agonist | > 1e-05 | > 1e-05 | < 1e-07 |  | 
O=C(O)CCc1cccc(NC(=O)c2ccc(-c3ccc(Cl)cc3)o2)c1 [Compound 147, 3-(3-{[5-(4-Chloro-phenyl)-furan-2-carbonyl]-amino}-phenyl)-propionic acid] | < 100 | EP2 Agonist | > 1e-05 | > 1e-05 | < 1e-07 |  | 
O=C(O)CCc1cccc(NC(=O)c2ccc(-c3ccc(F)cc3)o2)c1 [Compound 148, 3-(3-{[5-(4-Fluoro-phenyl)-furan-2-carbonyl]-amino}-phenyl)-propionic acid] | < 100 | EP2 Agonist | > 1e-05 | > 1e-05 | < 1e-07 |  | 
O=C(O)Cc1cccc(NC(=O)c2cccc(-c3ccc(Cl)cc3)n2)c1 [Compound 150, (3-{[6-(4-Chloro-phenyl)-pyridine-2-carbonyl]-amino}-phenyl)-acetic acid] | < 1000 | EP2 Agonist | > 1e-05 | > 1e-05 | < 1e-06 |  | 
O=C(O)/C=C/c1cccc(NC(=O)c2cccc(-c3ccc(Cl)cc3)n2)c1 [Compound 151, 3-(3-{[6-(4-Chloro-phenyl)-pyridine-2-carbonyl]-amino}-phenyl)-acrylic acid] | < 100 | EP2 Agonist | > 1e-05 | > 1e-05 | < 1e-07 |  | 
